± gives the expanded uncertainty stated by the source.

For this data set the following is noted: 101.33 kPa, Liquid.

What is called mass density is mass per unit of volume. As for `CCn1cc[n+](C)c1.COCCOCCOS(=O)(=O)[O-]` [1-ethyl-3-methylimidazolium 2-(2-methoxyethoxy) ethylsulfate], the mass density amounted to 1236.5 ± 2.9 kg/m3 (298.15 K), 1232.6 ± 2.9 kg/m3 (303.15 K) and 1225.6 ± 2.8 kg/m3 (313.15 K).
Turning to `CO` [methanol], the mass density runs as follows: (298.15 K) 786.7 ± 1.4 kg/m3; (303.15 K) 782 ± 1.4 kg/m3; (313.15 K) 772.7 ± 1.4 kg/m3.

Values taken from the NIST ThermoML archive (doi:10.1016/j.jct.2007.01.012).
